Test results as given in patent US9113629B2, “4-amino-6-(4-substituted-phenyl)-picolinates and 6-amino-2-(4-substituted-phenyl)-pyrimidine-4-carboxylates and their use as herbicides” (DOW AGROSCIENCES LLC, priority 2013, dated 2015).

test system: LOLSS: ryegrass including, Italian ryegrass (Lolium multiflorum), rigid ryegrass (Lolium rigidum), annual ryegrass (Lolium multiflorum subsp. Gaudini); assay: Post-emergent Test III, herbicidal activity in wheat and barley; type: in vivo; conditions: probit analysis, dose for growth reduction of 50 percent, 21 days after application
Procedure, shortened: (§1)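 Plants at the second to third true-leaf stage, grown in a greenhouse at about 18/17 °C with a 14 h photoperiod, were sprayed post-emergence at 187 L/ha with the high rate and ½× to 1/16× serial dilutions in an acetone/DMSO/crop-oil/surfactant carrier. Injury was rated visually at 21 d on a 0–100% scale, and GR20–GR90 were derived by probit analysis.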

Row | Structure (SMILES) | GR50 LOLSS
1 | Nc1c(F)c(-c2ccc(I)cc2)nc(C(=O)O)c1Cl [Compound 45, 4-amino-3-chloro-5-fluoro-6-(4-iodophenyl)picolinic acid] | 20 g ai/ha

same assay, conditions: probit analysis, dose for growth reduction of 80 percent, 21 days after application

Row | Structure (SMILES) | GR80 LOLSS
2 | Nc1c(F)c(-c2ccc(I)cc2)nc(C(=O)O)c1Cl [Compound 45, 4-amino-3-chloro-5-fluoro-6-(4-iodophenyl)picolinic acid] | 69 g ai/ha

test system: APESV: bentgrass (Apera spica-venti); assay: as above; type: in vivo; conditions: Apera spica-venti, post-emergence, 504 h; 35 g ai/ha; read-out: Visual Growth Reduction (%) 21 Days After Application APESV
Procedure, shortened: as §1

Row | Structure (SMILES) | pest or weed control at 35 g/ha
3 | Nc1c(F)c(-c2ccc(I)cc2)nc(C(=O)O)c1Cl [Compound 45, 4-amino-3-chloro-5-fluoro-6-(4-iodophenyl)picolinic acid] | 85 to 94%

same assay, conditions: Apera spica-venti, post-emergence, 504 h; 70 g ai/ha; read-out: Visual Growth Reduction (%) 21 Days After Application APESV

Row | Structure (SMILES) | pest or weed control at 70 g/ha
4 | Nc1c(F)c(-c2ccc(I)cc2)nc(C(=O)O)c1Cl [Compound 45, 4-amino-3-chloro-5-fluoro-6-(4-iodophenyl)picolinic acid] | 85 to 94%

same assay, conditions: Apera spica-venti, post-emergence, 504 h; 140 g ai/ha; read-out: Visual Growth Reduction (%) 21 Days After Application APESV

Row | Structure (SMILES) | pest or weed control at 140 g/ha
5 | Nc1c(F)c(-c2ccc(I)cc2)nc(C(=O)O)c1Cl [Compound 45, 4-amino-3-chloro-5-fluoro-6-(4-iodophenyl)picolinic acid] | 95 to 100%

same assay, conditions: probit analysis, dose for growth reduction of 50 percent, 21 days after application

Row | Structure (SMILES) | GR50 APESV
6 | Nc1c(F)c(-c2ccc(I)cc2)nc(C(=O)O)c1Cl [Compound 45, 4-amino-3-chloro-5-fluoro-6-(4-iodophenyl)picolinic acid] | 8 g ai/ha

same assay, conditions: probit analysis, dose for growth reduction of 80 percent, 21 days after application

Row | Structure (SMILES) | GR80 APESV
7 | Nc1c(F)c(-c2ccc(I)cc2)nc(C(=O)O)c1Cl [Compound 45, 4-amino-3-chloro-5-fluoro-6-(4-iodophenyl)picolinic acid] | 25 g ai/ha

test system: MATSS: scented mayweed (Matricaria chamomilla), pineappleweed (Matricaria matricarioides); assay: as above; type: in vivo; conditions: Matricaria chamomilla, post-emergence, 504 h; 35 g ai/ha; read-out: Visual Growth Reduction (%) 21 Days After Application MATSS
Procedure, shortened: as §1

Row | Structure (SMILES) | pest or weed control at 35 g/ha
8 | Nc1c(F)c(-c2ccc(I)cc2)nc(C(=O)O)c1Cl [Compound 45, 4-amino-3-chloro-5-fluoro-6-(4-iodophenyl)picolinic acid] | 85 to 94%

same assay, conditions: Matricaria chamomilla, post-emergence, 504 h; 70 g ai/ha; read-out: Visual Growth Reduction (%) 21 Days After Application MATSS

Row | Structure (SMILES) | pest or weed control at 70 g/ha
9 | Nc1c(F)c(-c2ccc(I)cc2)nc(C(=O)O)c1Cl [Compound 45, 4-amino-3-chloro-5-fluoro-6-(4-iodophenyl)picolinic acid] | 95 to 100%

same assay, conditions: Matricaria chamomilla, post-emergence, 504 h; 140 g ai/ha; read-out: Visual Growth Reduction (%) 21 Days After Application MATSS

Row | Structure (SMILES) | pest or weed control at 140 g/ha
10 | Nc1c(F)c(-c2ccc(I)cc2)nc(C(=O)O)c1Cl [Compound 45, 4-amino-3-chloro-5-fluoro-6-(4-iodophenyl)picolinic acid] | 95 to 100%

same assay, conditions: probit analysis, dose for growth reduction of 50 percent, 21 days after application

Row | Structure (SMILES) | GR50 MATSS
11 | Nc1c(F)c(-c2ccc(I)cc2)nc(C(=O)O)c1Cl [Compound 45, 4-amino-3-chloro-5-fluoro-6-(4-iodophenyl)picolinic acid] | 2 g ai/ha

same assay, conditions: probit analysis, dose for growth reduction of 80 percent, 21 days after application

Row | Structure (SMILES) | GR80 MATSS
12 | Nc1c(F)c(-c2ccc(I)cc2)nc(C(=O)O)c1Cl [Compound 45, 4-amino-3-chloro-5-fluoro-6-(4-iodophenyl)picolinic acid] | 29 g ai/ha

test system: not listed separately; assay: as above; type: in vivo, Lolium multiflorum, Lolium rigidum; conditions: Lolium multiflorum, post-emergence, 504 h; 35 g ai/ha; read-out: Visual Growth Reduction (%) 21 Days After Application LOLSS
Procedure, shortened: as §1

Row | Structure (SMILES) | pest or weed control at 35 g/ha
13 | Nc1c(F)c(-c2ccc(I)cc2)nc(C(=O)O)c1Cl [Compound 45, 4-amino-3-chloro-5-fluoro-6-(4-iodophenyl)picolinic acid] | 60 to 74%

same assay, conditions: Lolium multiflorum, post-emergence, 504 h; 70 g ai/ha; read-out: Visual Growth Reduction (%) 21 Days After Application LOLSS

Row | Structure (SMILES) | pest or weed control at 70 g/ha
14 | Nc1c(F)c(-c2ccc(I)cc2)nc(C(=O)O)c1Cl [Compound 45, 4-amino-3-chloro-5-fluoro-6-(4-iodophenyl)picolinic acid] | 75 to 84%

same assay, conditions: Lolium multiflorum, post-emergence, 504 h; 140 g ai/ha; read-out: Visual Growth Reduction (%) 21 Days After Application LOLSS

Row | Structure (SMILES) | pest or weed control at 140 g/ha
15 | Nc1c(F)c(-c2ccc(I)cc2)nc(C(=O)O)c1Cl [Compound 45, 4-amino-3-chloro-5-fluoro-6-(4-iodophenyl)picolinic acid] | 85 to 94%

test system: TRZSS: wheat, including spring and winter (Triticum aestivum); assay: as above; type: in vivo; conditions: Triticum aestivum, post-emergence, 504 h; 35 g ai/ha; read-out: Visual Growth Reduction (%) 21 Days After Application TRZSS
Procedure, shortened: as §1

Row | Structure (SMILES) | pest or weed control at 35 g/ha
16 | Nc1c(F)c(-c2ccc(I)cc2)nc(C(=O)O)c1Cl [Compound 45, 4-amino-3-chloro-5-fluoro-6-(4-iodophenyl)picolinic acid] | 85 to 94%

same assay, conditions: Triticum aestivum, post-emergence, 504 h; 70 g ai/ha; read-out: Visual Growth Reduction (%) 21 Days After Application TRZSS

Row | Structure (SMILES) | pest or weed control at 70 g/ha
17 | Nc1c(F)c(-c2ccc(I)cc2)nc(C(=O)O)c1Cl [Compound 45, 4-amino-3-chloro-5-fluoro-6-(4-iodophenyl)picolinic acid] | 85 to 94%

same assay, conditions: Triticum aestivum, post-emergence, 504 h; 140 g ai/ha; read-out: Visual Growth Reduction (%) 21 Days After Application TRZSS

Row | Structure (SMILES) | pest or weed control at 140 g/ha
18 | Nc1c(F)c(-c2ccc(I)cc2)nc(C(=O)O)c1Cl [Compound 45, 4-amino-3-chloro-5-fluoro-6-(4-iodophenyl)picolinic acid] | 85 to 94%

same assay, conditions: probit analysis, dose for growth reduction of 20 percent, 21 days after application; crop

Row | Structure (SMILES) | GR20 TRZSS
19 | Nc1c(F)c(-c2ccc(I)cc2)nc(C(=O)O)c1Cl [Compound 45, 4-amino-3-chloro-5-fluoro-6-(4-iodophenyl)picolinic acid] | 1 g ai/ha

test system: SETVI: green foxtail (Setaria viridis); assay: as above; type: in vivo; conditions: Setaria viridis, post-emergence, 504 h; 35 g ai/ha; read-out: Visual Growth Reduction (%) 21 Days After Application SETVI
Procedure, shortened: as §1

Row | Structure (SMILES) | pest or weed control at 35 g/ha
20 | Nc1c(F)c(-c2ccc(I)cc2)nc(C(=O)O)c1Cl [Compound 45, 4-amino-3-chloro-5-fluoro-6-(4-iodophenyl)picolinic acid] | 60 to 74%

same assay, conditions: Setaria viridis, post-emergence, 504 h; 70 g ai/ha; read-out: Visual Growth Reduction (%) 21 Days After Application SETVI

Row | Structure (SMILES) | pest or weed control at 70 g/ha
21 | Nc1c(F)c(-c2ccc(I)cc2)nc(C(=O)O)c1Cl [Compound 45, 4-amino-3-chloro-5-fluoro-6-(4-iodophenyl)picolinic acid] | 85 to 94%

same assay, conditions: Setaria viridis, post-emergence, 504 h; 140 g ai/ha; read-out: Visual Growth Reduction (%) 21 Days After Application SETVI

Row | Structure (SMILES) | pest or weed control at 140 g/ha
22 | Nc1c(F)c(-c2ccc(I)cc2)nc(C(=O)O)c1Cl [Compound 45, 4-amino-3-chloro-5-fluoro-6-(4-iodophenyl)picolinic acid] | 95 to 100%

same assay, conditions: probit analysis, dose for growth reduction of 50 percent, 21 days after application

Row | Structure (SMILES) | GR50 SETVI
23 | Nc1c(F)c(-c2ccc(I)cc2)nc(C(=O)O)c1Cl [Compound 45, 4-amino-3-chloro-5-fluoro-6-(4-iodophenyl)picolinic acid] | 18 g ai/ha

same assay, conditions: probit analysis, dose for growth reduction of 80 percent, 21 days after application

Row | Structure (SMILES) | GR80 SETVI
24 | Nc1c(F)c(-c2ccc(I)cc2)nc(C(=O)O)c1Cl [Compound 45, 4-amino-3-chloro-5-fluoro-6-(4-iodophenyl)picolinic acid] | 52 g ai/ha

test system: KCHSC: kochia (Kochia scoparia); assay: as above; type: in vivo; conditions: Bassia scoparia, post-emergence, 504 h; 35 g ai/ha; read-out: Visual Growth Reduction (%) 21 Days After Application KCHSC
Procedure, shortened: as §1

Row | Structure (SMILES) | pest or weed control at 35 g/ha
25 | Nc1c(F)c(-c2ccc(I)cc2)nc(C(=O)O)c1Cl [Compound 45, 4-amino-3-chloro-5-fluoro-6-(4-iodophenyl)picolinic acid] | 85 to 94%

same assay, conditions: Bassia scoparia, post-emergence, 504 h; 70 g ai/ha; read-out: Visual Growth Reduction (%) 21 Days After Application KCHSC

Row | Structure (SMILES) | pest or weed control at 70 g/ha
26 | Nc1c(F)c(-c2ccc(I)cc2)nc(C(=O)O)c1Cl [Compound 45, 4-amino-3-chloro-5-fluoro-6-(4-iodophenyl)picolinic acid] | 95 to 100%

same assay, conditions: Bassia scoparia, post-emergence, 504 h; 140 g ai/ha; read-out: Visual Growth Reduction (%) 21 Days After Application KCHSC

Row | Structure (SMILES) | pest or weed control at 140 g/ha
27 | Nc1c(F)c(-c2ccc(I)cc2)nc(C(=O)O)c1Cl [Compound 45, 4-amino-3-chloro-5-fluoro-6-(4-iodophenyl)picolinic acid] | 95 to 100%

same assay, conditions: probit analysis, dose for growth reduction of 50 percent, 21 days after application

Row | Structure (SMILES) | GR50 KCHSC
28 | Nc1c(F)c(-c2ccc(I)cc2)nc(C(=O)O)c1Cl [Compound 45, 4-amino-3-chloro-5-fluoro-6-(4-iodophenyl)picolinic acid] | 2 g ai/ha

same assay, conditions: probit analysis, dose for growth reduction of 80 percent, 21 days after application

Row | Structure (SMILES) | GR80 KCHSC
29 | Nc1c(F)c(-c2ccc(I)cc2)nc(C(=O)O)c1Cl [Compound 45, 4-amino-3-chloro-5-fluoro-6-(4-iodophenyl)picolinic acid] | 9 g ai/ha

test system: HORSS: barley, including spring and winter (Hordeum vulgare); assay: as above; type: in vivo; conditions: Hordeum vulgare, post-emergence, 504 h; 35 g ai/ha; read-out: Visual Growth Reduction (%) 21 Days After Application HORSS
Procedure, shortened: as §1

Row | Structure (SMILES) | pest or weed control at 35 g/ha
30 | Nc1c(F)c(-c2ccc(I)cc2)nc(C(=O)O)c1Cl [Compound 45, 4-amino-3-chloro-5-fluoro-6-(4-iodophenyl)picolinic acid] | 85 to 94%

same assay, conditions: Hordeum vulgare, post-emergence, 504 h; 70 g ai/ha; read-out: Visual Growth Reduction (%) 21 Days After Application HORSS

Row | Structure (SMILES) | pest or weed control at 70 g/ha
31 | Nc1c(F)c(-c2ccc(I)cc2)nc(C(=O)O)c1Cl [Compound 45, 4-amino-3-chloro-5-fluoro-6-(4-iodophenyl)picolinic acid] | 85 to 94%

same assay, conditions: Hordeum vulgare, post-emergence, 504 h; 140 g ai/ha; read-out: Visual Growth Reduction (%) 21 Days After Application HORSS

Row | Structure (SMILES) | pest or weed control at 140 g/ha
32 | Nc1c(F)c(-c2ccc(I)cc2)nc(C(=O)O)c1Cl [Compound 45, 4-amino-3-chloro-5-fluoro-6-(4-iodophenyl)picolinic acid] | 95 to 100%

same assay, conditions: probit analysis, dose for growth reduction of 20 percent, 21 days after application; crop

Row | Structure (SMILES) | GR20 HORSS
33 | Nc1c(F)c(-c2ccc(I)cc2)nc(C(=O)O)c1Cl [Compound 45, 4-amino-3-chloro-5-fluoro-6-(4-iodophenyl)picolinic acid] | 1 g ai/ha
